These results are taken from US5874442A, “Tricyclic amides useful for inhibition of G-protein function and for treatment of proliferative disease” (Schering-Plough Corporation, priority 1996, dated 1999).

Holding throughout (format): cell-based
In one assay the test system is A549. Description: Soft agar assay. The following applies: Homo sapiens; A549 (lung) K ras mutation; read-out: IC50, inhibition of human tumor cell growth, soft agar. The method, then: (§1) Anchorage-independent growth is a characteristic of tumorigenic cell lines. Human tumor cells are suspended in growth medium containing 0.3% agarose and an indicated concentration of a farnesyl transferase inhibitor. The solution is overlayed onto growth medium solidified with 0.6% agarose containing the same concentration of farnesyl transferase inhibitor as the top layer. […] After incubation, the colonies are stained by overlaying the agar with a solution of MTT (3-[4,5-dimethylthiazol-2-yl]-2,5-diphenyltetrazolium bromide, Thiazolyl blue) (1 mg/mL in PBS). Colonies are counted and the IC50's determined.

The next assay relates to HTB 175. Description: Soft agar assay. Particulars: Homo sapiens; HTB 175 (SCLC) ras mut. not detected; read-out: IC50, inhibition of human tumor cell growth, soft agar. Here is the method: as §1
The test system of another assay is HTB 177. Nature of the assay: Soft agar assay. Particulars: Homo sapiens; HTB 177 (NSCLC) K ras mutation; read-out: IC50, inhibition of human tumor cell growth, soft agar. The method, then:
as §1

For assay [1], the system named is Normal human HEPM fibroblasts. Description: Cell mat assay, normal cells (cell mat). Particulars: Homo sapiens, Fibroblast, 336 h, read-out: Normal IC50. Here is the method:
Compound-induced colony inhibition was assayed by addition of serial dilutions of compound directly to the growth medium 24 h after tumor cell planting, and incubating cells for an additional 14 d to allow colony formation. Assays were terminated by rinsing monolayers twice with phosphate-buffered saline (PBS), fixing the monolayers with a 1% glutaraldehyde solution in PBS, then visualizing tumor cells by staining with X-Gal (Price, J., et al., Lineage analysis in the vertebrate nervous system by retrovirus-mediated gene transfer, Proc. Natl. Acad. Sci.84, 156-160(1987)). […] Both IC50 values were obtained by determining the density of tumor cells and mat cells by visual inspection and enumeration of cells per colony and the number of colonies under the microscope.

The test system of the next assay is MDA MB453 (breast). Nature of the assay: Soft agar assay. The following applies: Homo sapiens, MDA-MB-453, read-out: IC50, inhibition of human tumor cell growth, soft agar. Here is the method:
(§2) Anchorage-independent growth is a characteristic of tumorigenic cell lines. Human tumor cells are suspended in growth medium containing 0.3% agarose and an indicated concentration of a farnesyl transferase inhibitor. The solution is overlayed onto growth medium solidified with 0.6% agarose containing the same concentration of farnesyl transferase inhibitor as the top layer. After the top layer is solidified, plates are incubated for 10-16 days at 37° C. under 5% CO2 to allow colony outgrowth. After incubation, the colonies are stained by overlaying the agar with a solution of MTT (3-[4,5-dimethylthiazol-2-yl]-2,5-diphenyltetrazolium bromide, Thiazolyl blue) (1 mg/mL in PBS). Colonies are counted and the IC50's determined.

For the next assay, the system named is AsPc-1. Description: Soft agar assay. Particulars: Homo sapiens, ASPC1; AsPc-1 (pancreatic) K ras mutation; read-out: IC50, inhibition of human tumor cell growth, soft agar. The method, then: as §2
For a further assay, the system named is HBL100. Description: Soft agar assay. Particulars: Homo sapiens, HBL-100; HBL100 (breast) ras mut. not detected; read-out: IC50, inhibition of human tumor cell growth, soft agar. Here is the method:
as §2

Another assay has as its system DLD 1. Description: Soft agar assay. The following applies: Homo sapiens; DLD 1 (colon) K ras mutation; read-out: IC50, inhibition of human tumor cell growth, soft agar. Here is the method: as §2
A further assay deals with HTB 119 (NCI H69). Description: Soft agar assay. The following applies: Homo sapiens; HTB 119 (NCI H69) (SCLC); read-out: IC50, inhibition of human tumor cell growth, soft agar. The method, then:
as §2

In a further assay the test system is Du4475. Nature of the assay: Soft agar assay. The following applies: Homo sapiens, DU-4475; Du4475 (breast) ras mut. not detected; read-out: IC50, inhibition of human tumor cell growth, soft agar. Here is the method: as §2

By IC50 is commonly meant the point on the concentration scale where inhibition reaches its midpoint. As to `NC(=O)N1CCC(CC(=O)N2CCC([C@H]3c4ncc(Br)cc4CCc4cc(Cl)cc(Br)c43)CC2)CC1` [Example 10], the IC50 is 150 nM in the assay with A549; 250 nM with HTB 175; 40 nM in the assay on HTB 177; over 25000 nM in assay [1]; 600 nM in the assay on MDA MB453 (breast); 3000 nM in the assay on AsPc-1. In addition, the IC50 in the assay on HBL100 is under 600 nM; with DLD 1, 2500 nM; with HTB 119 (NCI H69), 300 nM; in the assay on Du4475, 600 nM.
